The test system of data set [1] is PAC1-R. Kind of data set: PAC1-R expression in SHSY-5Y cells, confocal immunofluorescence. The data set is classed as cell-based, Human. The settings on record: 100 μM SPAM1, incubated 1 h. The method, then: Human nerve cells SHSY-5Y naturally expressing the PAC1-R were cultured until the fusion rate was more than 80%, added with 100 μM SPAM1, and observed by confocal immunofluorescence after being incubated for 1 h.

The subject of data set [2] is PAC1-R. Put plainly: PAC1-R expression in Neuro2a cells, western blot with anti-PAC1-R (C-terminal) antibody. Type of data set: cell-based, Mouse. The conditions noted are these: SPAM1 at 1 μM, 10 μM and 100 μM, incubated 1 h. The method, then: Mouse nerve cells Neuro2a naturally expressing the PAC1-R were cultured until the fusion rate was more than 80%, added with SPAM1 at 1 μM, 10 μM and 100 μM, and disrupted after being incubated for 1 h. The supernatant of the whole cell lysate was subjected to SDS-PAGE and the western blot assay using the anti-PAC1-R (C-terminal) antibody.
A general note: In western blotting, separated proteins are transferred to a membrane and probed.

The subject of another data set is corticosterone. Put plainly: Level of corticosterone (COR) in serum of mice after intraperitoneal injection (ELISA). Type of data set: in vivo, BALb/c mice. The settings on record: SPAM1 10, 100 and 1000 μmol/kg intraperitoneal; blood 1 h after injection; vs normal saline control. The method, then:
Forty BALb/c mice (SPF grade, 8-10 weeks old, weighing 22-27 g, half female and half male) were randomly divided into following […], with 10 mice in each group: 1) SPAM1 low-dose group, intraperitoneal injection, 10 μmol/kg; 2) SPAM1 medium-dose group, intraperitoneal injection, 100 μmol/kg; 3) SPAM1 high-dose group, intraperitoneal injection, 1000 μmol/kg; 4) normal control group, injected with normal saline intraperitoneally; 1 h after the injection, blood was collected from the orbit, and the level of COR in serum was measured by the solid phase sandwich enzyme-linked immunosorbent assay (ELISA).
(An ELISA detects its analyte on a solid surface through an enzyme-linked reagent.)

In another data set the test system is LPS-induced sepsis model. Kind of data set: LPS-induced sepsis model, survival. Type of data set: in vivo, BALB/c mice. The conditions noted are these: SPAM1 10 or 100 μmol/kg i.p. 30 min before 15 mg/kg LPS at the tail vein; survival recorded for 8 days. The method, then: An LPS-induced sepsis model was used. Forty BALB/c mice (SPF grade, half male and half female, 8-10 weeks old, weighing 22-27 g) were randomly divided into following 4 groups, with 10 mice in each group: 1) sepsis model group, injected with normal saline intraperitoneally, and 30 min later, injected with 15 mg/kg LPS at the tail vein; 2) SPAM1 low-dose treatment group, injected with low-dose SPAM1 (10 μmol/kg) intraperitoneally, and 30 min later, injected with 15 mg/kg LPS at the tail vein; 3) SPAM1 high-dose treatment group, injected with high-dose SPAM1 (100 μmol/kg) intraperitoneally, and 30 min later, injected with 15 mg/kg LPS at the tail vein; and 4) normal control group, injected with normal saline intraperitoneally, and 30 min later, injected with normal saline at the tail vein; the survival of mice was observed every 24 h, and the survival rate of each group was recorded for 8 days.

A further data set has as its system PACAP. Kind of data set: Level of PACAP in serum of mice after intraperitoneal injection (ELISA kit). The data set is classed as in vivo, BALb/c mice. The conditions noted are these: SPAM1 10 and 100 μmol/kg intraperitoneal; blood 30 min after injection; vs normal saline control. The method, then:
Thirty BALb/c mice (SPF grade, 8-10 weeks old, weighing 22-27 g, half female and half male) were randomly divided into following […], with 10 mice in each group: 1) SPAM1 low-dose group, intraperitoneal injection, 10 μmol/kg; 2) SPAM1 high-dose group, intraperitoneal injection, 100 μmol/kg; 3) normal control group, injected with normal saline intraperitoneally; 30 min after the injection, blood was collected from the orbit, and serum was assayed for PACAP using an ELISA kit.

Data set [3] deals with dexamethasone-induced thymus decline model. Put plainly: Dexamethasone-induced thymus decline model, thymus index. The data set is classed as in vivo, BALB/c mice. The conditions noted are these: dexamethasone 25 mg/kg/d*2d i.p.; SPAM1 10 or 100 μmol/kg/d*2d i.p. at the same time. The method, then:
A dexamethasone-induced thymus decline model was used. Forty BALB/c mice (SPF grade, half male and half female, 8-10 weeks old, weighing 22-27 g) were randomly divided into following 4 groups, with 10 mice in each group: 1) aging model group, injected with dexamethasone (25 mg/kg/d*2d) intraperitoneally; 2) SPAM1 low-dose treatment group, injected with dexamethasone as in group 1), and injected with SPAM1 at a low dose (10 μmol/kg/d*2d) intraperitoneally at the same time; 3) SPAM1 high-dose treatment group, injected with dexamethasone as in group 1), and injected with SPAM1 at a high dose (100 μmol/kg/d*2d) intraperitoneally at the same time; and 4) normal control group, injected with normal saline intraperitoneally instead of dexamethasone and SPAM1; 24 h after the completion of the final injection, the mice were weighed and sacrificed by cervical dislocation method, the thymus of the mice was weighed, and the thymus index was calculated according to: thymus index=thymus weight (mg)/body weight (g).

For data set [4], the system named is D-galactose-induced aging model. Kind of data set: D-galactose-induced aging model, testicular decline: testosterone in serum (ELISA). The data set is classed as in vivo, BALB/c male mice. The conditions noted are these: male mice, D-galactose 200 mg/kg/d*42d; SPAM1 10 or 100 μmol/kg/d*28d i.p. from day 15; high dose more significant than low. The method, then: (§1) A D-galactose-induced aging model was used. Forty BALB/c male mice (SPF grade, 8-10 weeks old, weighing 22-27 g) were randomly divided into following 4 groups, with 10 mice in each group: 1) aging model group, injected with D-galactose (200 mg/kg/d*42d) subcutaneously at the neck or back; 2) SPAM1 low-dose treatment group, injected with D-galactose as in group 1), and injected with low-dose SPAM1 (10 μmol/kg/d*28d) intraperitoneally on day 15; 3) SPAM1 high-dose treatment group, injected with D-galactose as in group 1), and injected with high-dose SPAM1 (100 μmol/kg/d*28d) intraperitoneally on day 15; and 4) normal control group, injected with normal saline intraperitoneally instead of D-galactose and SPAM1; 24 h after all injections, blood was collected from the orbit, and the level of testosterone in serum was assayed by the enzyme-linked immunosorbent assay (ELISA).

The test system is the same in data set [5]. Kind of data set: D-galactose-induced aging model, ovarian decline: estradiol and luteinizing hormone in serum (ELISA). Type of data set: in vivo, BALB/c female mice. The settings on record: female mice, D-galactose 200 mg/kg/d*42d; SPAM1 10 or 100 μmol/kg/d*28d i.p. from day 15; high dose more significant than low. The method, then:
as §1, with “female” for “male”, “after the completion of” for “after”, “estradiol and luteinizing hormone” for “testosterone”

The conditions of data set [6]: cited from earlier work.

In the case of `O=C(CCCc1nc2ccccc2c(=O)[nH]1)NCc1ccc(C(=O)O)cc1`, in the data set with PAC1-R [1], the “red fluorescent signal targeting PAC1-R in SHSY-5Y cells” value is “significantly up-regulated”. Further, the “expression of PAC1-R in nerve cells Neuro2a (western blot)” value with PAC1-R [2] was “up-regulated the expression of PAC1-R in nerve cells in a concentration-dependent manner”. Also, the “level of COR in serum” value in the data set on corticosterone is “increased the level of COR in a concentration-dependent manner”. Further, the “death rate / survival rate in LPS-induced sepsis” value in the data set on LPS-induced sepsis model is recorded as “effectively inhibited death caused by LPS-induced sepsis”. Further, the “level of PACAP in serum” value with PACAP is “effectively up-regulated the level of PACAP in serum and the up-regulation was concentration-dependent”. Moreover, the “thymus index (thymus weight (mg)/body weight (g))” value in data set [3] was “effectively inhibited the dexamethasone-induced down-regulation of thymus index”. The “level of testosterone in serum of aging mice” value in [4] is recorded as “effectively up-regulated”. Also, in data set [5], the “level of estradiol in serum of aging mice” value was “effectively up-regulated” and the “level of luteinizing hormone in serum of aging mice” value is listed as “effectively up-regulated”.

As to PACAP38, in [6], the in vivo half-life entry was “less than 2 min”.

(Values after patent publication US20250236595A1 (priority 2020, published 2025).)
